# Reference: patent US20260256859A1, “COMPOSITION FOR PREVENTING, AMELIORATING, OR TREATING TUBERCULOSIS COMPRISING EXTRACT OF PHILADELPHUS SP. PLANT AS ACTIVE INGREDIENT” (priority 2023, published 2026)
# Key:
# [1] = tested on: Mycobacterium tuberculosis H37Rv; assay: Intracellular M. tuberculosis CFU count in infected bone marrow-derived macrophages after treatment with extract or anti-tuberculosis agent; assay type: cell-based; details: C57BL/6 mouse BMDM, H37Rv MOI=1, anti-tuberculosis agent 100 ng/mL, 48 hours; FIG. 2
# [2] = tested on: Mycobacterium tuberculosis H37Rv; assay: MIC and FIC of Philadelphus tenuifolius leaf extract alone or combined with an anti-tuberculosis agent in Rv-infected BMDM; assay type: cell-based; details: Rv-infected mouse BMDM, 48 hours; for MIC combination, RIF (antibiotic component): MIC of the antibiotic when combined with Philadelphus tenuifolius leaf extract; for MIC alone, Antibiotics: MIC = lowest concentration inhibiting more than 99% of bacterial growth
smiles,measurement,setting,value
CC[C@@H](CO)NCCN[C@@H](CC)CO [ethambutol],number of intracellular M. tuberculosis in mouse bone marrow-derived macrophages (CFU) vs infection control (Rv),[1],statistically significantly reduced
same,"MIC combination, RIF (antibiotic component)",[2],0.3 µg/mL
same,"MIC alone, Antibiotics",[2],4 µg/mL
NNC(=O)c1ccncc1 [isoniazid],number of intracellular M. tuberculosis in mouse bone marrow-derived macrophages (CFU) vs infection control (Rv),[1],statistically significantly reduced
same,"MIC combination, RIF (antibiotic component)",[2],0.03 µg/mL
same,"MIC alone, Antibiotics",[2],0.1 µg/mL
CO[C@H]1/C=C/O[C@@]2(C)Oc3c(C)c(O)c4c(O)c(c(/C=N/N5CCN(C)CC5)c(O)c4c3C2=O)NC(=O)/C(C)=C\C=C\[C@H](C)[C@H](O)[C@@H](C)[C@@H](O)[C@@H](C)[C@H](OC(C)=O)[C@@H]1C [rifampicin],"MIC combination, RIF (antibiotic component)",[2],0.03 µg/mL
same,"MIC alone, Antibiotics",[2],0.1 µg/mL
